{"source": "patent US20110236859A1", "about": "“ORAL CARE COMPOSITION CONTAINING OXIDASE ENZYME” (priority 2009, published 2011)", "experiment": "Glucose oxidase binding to saliva-coated hydroxyapatite disks (Amplex Red horseradish peroxidase coupled assay)", "procedure": "Glucose oxidase binding to saliva coated hydroxyappetite disks is measured using a fluorescent (Amplex Red) horseradish peroxidase coupled assay directly from the disk surface.\nHydroxyapatite (HAP) disks coated with saliva are commonly used as models of a tooth surface.\nSaliva was collected from 3-5 donors, clarified by centrifugation, and added to cover HAP disks (5 mm×2.0 mm Clarkson Chromatography) in a covered plastic tray. The disks were incubated with the saliva overnight, with gentle shaking, at room temperature. The disks were rinsed twice with 50 mM phosphate buffer prior to use in the binding assay. Varying concentrations of glucose oxidase (50-650 mU/ml) were added to the saliva-coated HAP disks in the presence of sorbitol (0.8-8%) or polyethyleneimine (1%). The amount of glucose oxidase retained on the hydroxyapatite disks, following three consecutive washes with phosphate buffered saline, was measured using a fluorescence (Amplex Red, Molecular Probes #A22189) horseradish peroxidase coupled assay, as per manufacturer's recommendation."}
{"smiles": "OC[C@@H](O)[C@@H](O)[C@H](O)[C@@H](O)CO", "note": "[sorbitol]", "values": [{"measurement": "binding of glucose oxidase to saliva coated hydroxyapatite disks relative to no additive", "setting": "FIG. 1, additive sorbitol 8, 0.8, 0.08%, fluorescent Amplex Red HRP coupled assay from disk surface", "result": "improve binding relative to no additive"}, {"measurement": "amount of active glucose oxidase detected on the hydroxyapatite", "setting": "at least 0.8% sorbitol, glucose oxidase 50-650 mU/ml, after three washes with phosphate buffered saline", "result": "increased the amount of active glucose oxidase detected on the hydroxyapatite"}]}
